These results are taken from ChEMBL document CHEMBL4385653, “Design, synthesis, biological evaluation of benzoyl amide derivatives containing nitrogen heterocyclic ring as potential VEGFR-2 inhibitors” (Bioorg Med Chem, 2019).

What all share (assay type): functional
The subject of assay [1] is MCF7. Nature of the assay: Induction of apoptosis in human MCF7 cells assessed as late apoptotic cells level at 4 uM incubated for 24 hrs by Annexin V-FITC/PI double staining based flow cytometry analysis (reference value: 3.1%). (Flow cytometry measures light scatter and fluorescence of single cells or particles in a stream.)
Assay [2] relates to MCF7. In words: Induction of apoptosis in human MCF7 cells assessed as late apoptotic cells level at 4 uM incubated for 36 hrs by Annexin V-FITC/PI double staining based flow cytometry analysis (reference value: 3.1%).
Assay [3] concerns MCF7. In words: Induction of apoptosis in human MCF7 cells assessed as late apoptotic cells level at 4 uM incubated for 24 hrs by Annexin V-FITC/PI double staining based flow cytometry analysis (reference value: 10.1%).
Assay [4] has as its system MCF7. In words: Induction of apoptosis in human MCF7 cells assessed as late necrotic cells level at 2 uM incubated for 24 hrs by Annexin V-FITC/PI double staining based flow cytometry analysis (reference value: 1.49%).
Assay [5] concerns MCF7. Nature of the assay: Induction of apoptosis in human MCF7 cells assessed as late apoptotic cells level at 2 uM incubated for 24 hrs by Annexin V-FITC/PI double staining based flow cytometry analysis (reference value: 10.1%).
Assay [6] concerns MCF7. Nature of the assay: Induction of apoptosis in human MCF7 cells assessed as late apoptotic cells level at 8 uM incubated for 24 hrs by Annexin V-FITC/PI double staining based flow cytometry analysis (reference value: 10.1%).
Assay [7] relates to MCF7. Nature of the assay: Induction of apoptosis in human MCF7 cells assessed as early apoptotic cells level at 4 uM incubated for 24 hrs by Annexin V-FITC/PI double staining based flow cytometry analysis (reference value: 1.06%).
Assay [8] concerns MCF7. Nature of the assay: Induction of apoptosis in human MCF7 cells assessed as viable cells level at 4 uM incubated for 36 hrs by Annexin V-FITC/PI double staining based flow cytometry analysis (reference value: 89%).
The test system of assay [9] is MCF7. In words: Induction of apoptosis in human MCF7 cells assessed as late necrotic cells level at 4 uM incubated for 24 hrs by Annexin V-FITC/PI double staining based flow cytometry analysis (reference value: 1.49%).
Assay [10] has as its system MCF7. Nature of the assay: Induction of apoptosis in human MCF7 cells assessed as viable cells level at 4 uM incubated for 12 hrs by Annexin V-FITC/PI double staining based flow cytometry analysis (reference value: 89%).
Assay [11] relates to MCF7. In words: Induction of apoptosis in human MCF7 cells assessed as early apoptotic cells level at 4 uM incubated for 12 hrs by Annexin V-FITC/PI double staining based flow cytometry analysis (reference value: 1.06%).
Assay [12] deals with MCF7. Nature of the assay: Induction of apoptosis in human MCF7 cells assessed as late necrotic cells level at 4 uM incubated for 12 hrs by Annexin V-FITC/PI double staining based flow cytometry analysis (reference value: 6.88%).
Assay [13] concerns MCF7. Nature of the assay: Induction of apoptosis in human MCF7 cells assessed as early apoptotic cells level at 4 uM incubated for 36 hrs by Annexin V-FITC/PI double staining based flow cytometry analysis (reference value: 1.06%).
The subject of assay [14] is MCF7. Nature of the assay: Induction of apoptosis in human MCF7 cells assessed as early apoptotic cells level at 4 uM incubated for 24 hrs by Annexin V-FITC/PI double staining based flow cytometry analysis (reference value: 6.37%).
Assay [15] concerns MCF7. In words: Induction of apoptosis in human MCF7 cells assessed as late apoptotic cells level at 4 uM incubated for 12 hrs by Annexin V-FITC/PI double staining based flow cytometry analysis (reference value: 3.1%).
In assay [16] the test system is MCF7. In words: Induction of apoptosis in human MCF7 cells assessed as viable cells level at 2 uM incubated for 24 hrs by Annexin V-FITC/PI double staining based flow cytometry analysis (reference value: 82%).
The test system of assay [17] is MCF7. In words: Induction of apoptosis in human MCF7 cells assessed as viable cells level at 8 uM incubated for 24 hrs by Annexin V-FITC/PI double staining based flow cytometry analysis (reference value: 82%).
For assay [18], the system named is MCF7. In words: Induction of apoptosis in human MCF7 cells assessed as early apoptotic cells level at 2 uM incubated for 24 hrs by Annexin V-FITC/PI double staining based flow cytometry analysis (reference value: 6.37%).
Assay [19] concerns MCF7. Nature of the assay: Induction of apoptosis in human MCF7 cells assessed as viable cells level at 4 uM incubated for 24 hrs by Annexin V-FITC/PI double staining based flow cytometry analysis (reference value: 82%).
In assay [20] the test system is MCF7. Nature of the assay: Induction of apoptosis in human MCF7 cells assessed as early apoptotic cells level at 8 uM incubated for 24 hrs by Annexin V-FITC/PI double staining based flow cytometry analysis (reference value: 6.37%).
Assay [21] has as its system MCF7. In words: Induction of apoptosis in human MCF7 cells assessed as late necrotic cells level at 4 uM incubated for 24 hrs by Annexin V-FITC/PI double staining based flow cytometry analysis (reference value: 6.88%).
Assay [22] concerns MCF7. In words: Induction of apoptosis in human MCF7 cells assessed as late necrotic cells level at 8 uM incubated for 24 hrs by Annexin V-FITC/PI double staining based flow cytometry analysis (reference value: 1.49%).
Assay [23] has as its system MCF7. In words: Induction of apoptosis in human MCF7 cells assessed as viable cells level at 4 uM incubated for 24 hrs by Annexin V-FITC/PI double staining based flow cytometry analysis (reference value: 89%).
In assay [24] the test system is MCF7. In words: Induction of apoptosis in human MCF7 cells assessed as late necrotic cells level at 4 uM incubated for 36 hrs by Annexin V-FITC/PI double staining based flow cytometry analysis (reference value: 6.88%).

Consider `CCCS(=O)(=O)Nc1ccc(F)c(C(=O)c2c[nH]c3ncc(-c4ccc(Cl)cc4)cc23)c1F` [VEMURAFENIB], for which the Activity in the assay with MCF7 [1] is on record as 16.7%; in the assay with MCF7 [2], 13.7%; in the assay on MCF7 [3], 21.7%; with MCF7 [4], 2.29%; in the assay with MCF7 [5], 14.9%; in the assay with MCF7 [6], 26.3%. The Activity in the assay on MCF7 [7] is reported as 15.1%; with MCF7 [8], 50.7%; in the assay with MCF7 [9], 3.53%; in the assay on MCF7 [10] it was 70.7%; with MCF7 [11] it was 14.2%; in the assay with MCF7 [12] it was 1.24%. For the same molecule, the Activity is recorded as 34.7% in the assay with MCF7 [13]; 8.13% in the assay on MCF7 [14]; 13.9% in the assay on MCF7 [15]; 74.6% in the assay on MCF7 [16]; 57.2% in the assay on MCF7 [17]; 8.28% in the assay with MCF7 [18]. For the same molecule, the Activity in the assay with MCF7 [19] is 66.7%; with MCF7 [20], 14.4%; in the assay on MCF7 [21], 1.81%; in the assay with MCF7 [22] it was 2.02%; with MCF7 [23], 66.4%; in the assay with MCF7 [24] it was 0.853%.
